Data as given in PubChem BioAssay (NCI).
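1) Cells in 96-well plates. 2) Compound, 48 h, 5 concentrations. 3) Linear interpolation between surrounding doses. 4) Unreached endpoint = highest concentration. TGI: total growth inhibition.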

Legend:
Experiment in all cases: NCI-60 cell line screen, 48 h
[1] = system: MCF7 breast
[2] = system: IGROV1 ovarian
[3] = system: NCI-H522 lung
[4] = system: UACC-62 melanoma
[5] = system: SW-620 colon
[6] = system: SF-539 CNS
[7] = system: HT29 colon
[8] = system: MDA-MB-231 breast
[9] = system: A549 NSCLC
[10] = system: SK-MEL-2 melanoma
[11] = system: CAKI-1 renal
[12] = system: PC-3 prostate
[13] = system: OVCAR-3 ovarian
[14] = system: KM12 colon
[15] = system: MALME-3M melanoma
[16] = system: SK-MEL-28 melanoma
[17] = system: RXF 393 renal
[18] = system: ACHN renal
[19] = system: UO-31 renal
[20] = system: SF-268 CNS
[21] = system: U251 CNS
[22] = system: HL-60(TB) leukemia
[23] = system: EKVX NSCLC
[24] = system: MOLT-4 leukemia
[25] = system: 786-0 renal
[26] = system: HOP-62 NSCLC
[27] = system: SK-MEL-5 melanoma
[28] = system: HCT-116 colon
[29] = system: SK-OV-3 ovarian
[30] = system: OVCAR-5 ovarian
[31] = system: DU-145 prostate
[32] = system: T-47D breast
[33] = system: SR leukemia
[34] = system: MDA-MB-435
[35] = system: SNB-19 CNS
[36] = system: SN12C renal
[37] = system: SNB-75 CNS
[38] = system: HS 578T breast
[39] = system: UACC-257 melanoma
[40] = system: OVCAR-8 ovarian
[41] = system: NCI-H226 lung
[42] = system: SF-295 CNS
[43] = system: K-562 leukemia
[44] = system: RPMI-8226 leukemia
[45] = system: HOP-92 NSCLC
[46] = system: COLO 205 colon
[47] = system: TK-10 renal
[48] = system: NCI-H23 lung
[49] = system: HCT-15 colon
[50] = system: M14 melanoma
[51] = system: NCI/ADR-RES ovarian
[52] = system: OVCAR-4 ovarian
[53] = system: NCI-H460 lung
[54] = system: BT-549 breast
[55] = system: HCC-2998 colon
[56] = system: A498 renal
[57] = system: CCRF-CEM leukemia

O=[N+]([O-])c1ccc(-c2nc(/C=N/N3CCCCC3)cs2)o1
TGI [1]: > 100 µM | TGI [2]: > 100 µM | TGI [3]: > 100 µM | TGI [4]: > 100 µM | TGI [5]: > 100 µM | TGI [6]: > 100 µM | TGI [7]: 57.1 µM | TGI [8]: > 100 µM | TGI [9]: > 100 µM | TGI [10]: > 100 µM | TGI [11]: > 100 µM | TGI [12]: > 100 µM | TGI [13]: 82.4 µM | TGI [14]: > 100 µM | TGI [15]: 76.6 µM | TGI [16]: > 100 µM | TGI [17]: > 100 µM | TGI [18]: > 100 µM | TGI [19]: > 100 µM | TGI [20]: > 100 µM | TGI [21]: > 100 µM | TGI [22]: > 100 µM | TGI [23]: > 100 µM | TGI [24]: 67 µM | TGI [25]: > 100 µM | TGI [26]: > 100 µM | TGI [27]: 59.5 µM | TGI [28]: > 100 µM | TGI [29]: > 100 µM | TGI [30]: > 100 µM | TGI [31]: > 100 µM | TGI [32]: > 100 µM | TGI [33]: 73 µM | TGI [34]: 62.6 µM | TGI [35]: > 100 µM | TGI [36]: 68.1 µM | TGI [37]: > 100 µM | TGI [38]: > 100 µM | TGI [39]: 50.7 µM | TGI [40]: > 100 µM | TGI [41]: > 100 µM | TGI [42]: > 100 µM | TGI [43]: > 100 µM | TGI [44]: 39.8 µM | TGI [45]: > 100 µM | TGI [46]: > 100 µM | TGI [47]: > 100 µM | TGI [48]: > 100 µM | TGI [49]: > 100 µM | TGI [50]: > 100 µM | TGI [51]: > 100 µM | TGI [52]: > 100 µM | TGI [53]: > 100 µM | TGI [54]: > 100 µM

COc1ccc2c(c1)-c1c(c3cc(OC)ccc3n1CCN1CCOCC1)CC2
TGI [1]: > 100 µM | TGI [2]: > 100 µM | TGI [3]: > 100 µM | TGI [4]: 52.6 µM | TGI [5]: > 100 µM | TGI [6]: 93.6 µM | TGI [7]: 28.1 µM | TGI [8]: > 100 µM | TGI [9]: > 100 µM | TGI [10]: > 100 µM | TGI [11]: > 100 µM | TGI [12]: > 100 µM | TGI [13]: > 100 µM | TGI [14]: > 100 µM | TGI [15]: 79.2 µM | TGI [16]: > 100 µM | TGI [17]: 98 µM | TGI [18]: > 100 µM | TGI [19]: > 100 µM | TGI [20]: > 100 µM | TGI [55]: 18.5 µM | TGI [21]: > 100 µM | TGI [24]: 33.6 µM | TGI [25]: 42.5 µM | TGI [26]: > 100 µM | TGI [27]: 79.5 µM | TGI [28]: > 100 µM | TGI [29]: > 100 µM | TGI [30]: > 100 µM | TGI [31]: > 100 µM | TGI [56]: > 100 µM | TGI [32]: > 100 µM | TGI [33]: 22 µM | TGI [34]: > 100 µM | TGI [36]: > 100 µM | TGI [37]: > 100 µM | TGI [38]: 39.9 µM | TGI [39]: > 100 µM | TGI [57]: 35.6 µM | TGI [40]: > 100 µM | TGI [41]: 30.6 µM | TGI [42]: 55.2 µM | TGI [43]: 36.2 µM | TGI [44]: 85.5 µM | TGI [45]: > 100 µM | TGI [46]: 37.3 µM | TGI [47]: > 100 µM | TGI [48]: > 100 µM | TGI [49]: 39.4 µM | TGI [50]: 35 µM | TGI [51]: 98.4 µM | TGI [52]: > 100 µM | TGI [53]: > 100 µM | TGI [54]: > 100 µM
